In paper PMC5421785, “Citrullination only infrequently impacts peptide binding to HLA class II MHC” (PLoS ONE, 2017):
Read-outs that look alike come from different tables or passages of the source. Square brackets hold non-standard residues; d marks the D form. Peptide text beside a SMILES is read from it. Cit = NC(=O)NCCC[C@H](N)C(=O)O

Assays:
Assay in all cases: HLA class II peptide binding, inhibition of radiolabeled peptide binding to purified MHC; on IC50 DRB1*01:01: competition with radiolabeled peptide (0.1–1 nM); on IC50 DRB1*04:01: competition with radiolabeled peptide (0.1–1 nM)
[1] = target: DRB3*02:02 (Homo sapiens, UniProt P01903+P79483, A212P/D57E/F66Y/L67A/R103Q/R218S/R40L/S89Y/T80R/V86D/Y55F/Y59H); details: Other DR, competition with radiolabeled peptide, two-day incubation, three or more independent experiments
[2] = target: T1, DRB3*01:01 (Homo sapiens, UniProt P01903+P79483); details: Other DR, competition with radiolabeled peptide, two-day incubation, three or more independent experiments
T1 construct: EBV transformed homozygous cell lines were used as sources of MHC molecules; endogenous in cells; host or cells: EBV transformed homozygous cell lines

[3] = target: DRB1*03:01 (Homo sapiens, UniProt P01903+P01911, A100K/A102G/A103R/A169T/F55Y/I96L/K41T/L162R/M171V/P40S/Q125H/Q178H/Q39Y/R42S/S66N/T106N/T262R/W38E/Y61H); details: Other DR, competition with radiolabeled peptide, two-day incubation, three or more independent experiments
[4] = target: T2, HLA-DRB1*04:01 (Homo sapiens, UniProt P01903+P01911, A100K/A169T/F76Y/I96L/K127E/L162R/M171V/N62H/P40V/Q125Y/R42H/S133A/S149N/S66Y/V115G/V209L/W38E); details: read-out: IC50 DRB1*04:01; further: competition with radiolabeled peptide (0.1–1 nM)
T2 construct: EBV transformed homozygous cell lines were used as sources of MHC molecules; endogenous in cells; host or cells: EBV transformed homozygous cell lines

[5] = target: DRB1*04:02 (Homo sapiens, UniProt P01903+P01911, A100E/A169T/F76Y/K127E/L162R/M171V/N62H/P40V/Q125Y/Q99D/R42H/S133A/S149N/S66Y/V209L/W38E); details: SE-, competition with radiolabeled peptide, two-day incubation, three or more independent experiments
[6] = target: DRB1*04:04 (Homo sapiens, UniProt P01903+P01911, A100R/A169T/F76Y/I96L/K127E/L162R/M171V/N62H/P40V/Q125Y/R42H/S133A/S149N/S66Y/V209L/W38E); details: SE+, competition with radiolabeled peptide, two-day incubation, three or more independent experiments
[7] = target: DRB1*11:01 (Homo sapiens, UniProt P01903+P01911, A100R/A169T/A87E/I96F/K41T/L162R/M171V/P40S/Q125H/Q178H/Q39Y/Q99D/R42S/S66Y/T262R/V115G/W38E); details: SE-, competition with radiolabeled peptide, two-day incubation, three or more independent experiments
[8] = target: DQB1*03:01 (Homo sapiens, UniProt P01909+P01920); details: DQ, competition with radiolabeled peptide, two-day incubation, three or more independent experiments
[9] = target: T3, DRB4*01:01 (Homo sapiens, UniProt P01903+P13762, G164S); details: Other DR, competition with radiolabeled peptide, two-day incubation, three or more independent experiments
T3 construct: EBV transformed homozygous cell lines were used as sources of MHC molecules; endogenous in cells; host or cells: EBV transformed homozygous cell lines

[10] = target: DRB1*12:01 (Homo sapiens, UniProt P01903+P01911, A100R/A169T/D57E/D86V/F55L/H45Y/K41T/L162R/M171V/P40S/Q125H/Q178H/Q39Y/Q99D/R42G/S66L/T262R/V114A/V67L/W38E/Y59H/Y61H/Y89S); details: SE-, competition with radiolabeled peptide, two-day incubation, three or more independent experiments
[11] = target: T4, DRB5*01:01 (Homo sapiens, UniProt P01903+Q30154); details: Other DR, competition with radiolabeled peptide, two-day incubation, three or more independent experiments
T4 construct: EBV transformed homozygous cell lines were used as sources of MHC molecules; endogenous in cells; host or cells: EBV transformed homozygous cell lines

[12] = target: DRB1*07:01 (Homo sapiens, UniProt P01903+P01911, A100R/A102G/A103Q/D57E/D86V/E43K/F76Y/K127E/L162R/M171V/P40G/Q125H/Q99D/R33Q/R42Y/R54Q/S133A/S66F/T210M/V115G/Y107V/Y59L/Y89S); details: Other DR, competition with radiolabeled peptide, two-day incubation, three or more independent experiments
[13] = target: DRB1*04:05 (Homo sapiens, UniProt P01903+P01911, A100R/A169T/D86S/F76Y/I96L/K127E/L162R/M171V/N62H/P40V/Q125Y/R42H/S133A/S149N/S66Y/V115G/V209L/W38E); details: SE+, competition with radiolabeled peptide, two-day incubation, three or more independent experiments
[14] = target: DRB1*10:01 (Homo sapiens, UniProt P01903+P01911, A100R/A169T/D57E/F55L/F60V/F69Y/F76Y/I96L/L162R/M171V/P40V/Q260P/Q39E/Q99R/R195Q/R42F/S149N/S66Y/T210M/V115G/V67A/W38E/Y59R/Y61H); details: SE+, competition with radiolabeled peptide, two-day incubation, three or more independent experiments
[15] = target: T5, HLA-DRB1*01:01 (Homo sapiens, UniProt P01903+P01911, A100R/D57E/F55L/F60I/F76Y/I96L/L162R/M171V/P40L/Q125E/R42F/V115G/Y59C); details: read-out: IC50 DRB1*01:01; further: competition with radiolabeled peptide (0.1–1 nM)
T5 construct: EBV transformed homozygous cell lines were used as sources of MHC molecules; endogenous in cells; host or cells: EBV transformed homozygous cell lines

[16] = target: T6, DRB1*15:01 (Homo sapiens, UniProt P01903+P01911); details: SE-, competition with radiolabeled peptide, two-day incubation, three or more independent experiments
T6 construct: EBV transformed homozygous cell lines were used as sources of MHC molecules; endogenous in cells; host or cells: EBV transformed homozygous cell lines

[17] = target: DRB1*16:02 (Homo sapiens, UniProt P01903+P01911, A100R/F76Y/I96L/Q99D/V115G); details: SE-, competition with radiolabeled peptide, two-day incubation, three or more independent experiments
[18] = target: DRB1*13:02 (Homo sapiens, UniProt P01903+P01911, A100E/A169T/K41T/L162R/M171V/P40S/Q125H/Q178H/Q39Y/Q99D/R42S/S66N/T262R/V115G/W38E/Y61H); details: SE-, competition with radiolabeled peptide, two-day incubation, three or more independent experiments
[19] = target: DRB1*09:01 (Homo sapiens, UniProt P01903+P01911, A100R/A103E/D57H/D86V/F55Y/F60I/F76Y/I96F/K127E/L162R/M171V/P40D/Q125H/Q99R/R33Q/R42F/S133A/S66N/T210M/V115G/W38K/Y107V/Y59G/Y89S); details: Other DR, competition with radiolabeled peptide, two-day incubation, three or more independent experiments
[20] = target: DRB1*08:02 (Homo sapiens, UniProt P01903+P01911, A100R/A103L/A169T/F76Y/H45Y/I96F/K41T/L162R/M171V/P40S/Q125H/Q178H/Q39Y/Q99D/R218S/R42G/S66Y/V115G/W38E); details: Other DR, competition with radiolabeled peptide, two-day incubation, three or more independent experiments
[21] = target: T7, DPB1*04:01 (Homo sapiens, UniProt P04440+P20036)
T7 construct: EBV transformed homozygous cell lines were used as sources of MHC molecules; endogenous in cells; host or cells: EBV transformed homozygous cell lines
T7 sequence (P04440 30-258): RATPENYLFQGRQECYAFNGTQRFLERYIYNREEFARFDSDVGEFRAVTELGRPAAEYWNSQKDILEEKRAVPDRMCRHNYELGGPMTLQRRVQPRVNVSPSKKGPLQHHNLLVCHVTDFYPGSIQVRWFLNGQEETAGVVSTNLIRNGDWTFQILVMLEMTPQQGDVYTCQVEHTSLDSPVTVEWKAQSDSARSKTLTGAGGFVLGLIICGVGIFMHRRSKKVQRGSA
T7 sequence (P20036 29-260 partner): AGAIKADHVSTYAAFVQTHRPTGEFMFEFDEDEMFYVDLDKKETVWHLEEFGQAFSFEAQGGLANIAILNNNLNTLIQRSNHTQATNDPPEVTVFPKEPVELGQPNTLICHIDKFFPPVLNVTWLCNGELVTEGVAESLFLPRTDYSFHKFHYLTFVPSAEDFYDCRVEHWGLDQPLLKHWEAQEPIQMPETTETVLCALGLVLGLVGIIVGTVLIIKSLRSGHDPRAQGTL

[22] = DP, purified MHC, competition with radiolabeled peptide, two-day incubation, three or more independent experiments

DQB1*03:01, sequence (P01920 33-261, other chains not shown): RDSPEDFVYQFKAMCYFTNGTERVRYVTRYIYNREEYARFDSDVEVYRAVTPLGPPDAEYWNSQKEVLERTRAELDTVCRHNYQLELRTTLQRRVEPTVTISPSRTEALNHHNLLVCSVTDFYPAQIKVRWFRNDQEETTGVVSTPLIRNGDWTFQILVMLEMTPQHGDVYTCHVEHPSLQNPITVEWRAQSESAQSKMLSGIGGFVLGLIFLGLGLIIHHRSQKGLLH

Compound	IC50 [1]	IC50 [2]	IC50 [3]	IC50 [4]	IC50 [5]	IC50 [6]	IC50 [7]	IC50 [8]	IC50 [9]	IC50 [10]	IC50 [11]	IC50 [12]	IC50 [13]	IC50 [14]	IC50 [15]	IC50 [16]	IC50 [17]	IC50 [18]	IC50 [19]	IC50 [20]	further results
CC(C)C[C@H](NC(=O)[C@H](CC(C)C)NC(=O)[C@@H](NC(=O)[C@@H](N)C(C)C)C(C)C)C(=O)N[C@H](C(=O)N[C@@H](C)C(=O)N[C@H](C(=O)N[C@@H](CCC(=O)O)C(=O)NCC(=O)N[C@@H](CCCNC(N)=O)C(=O)N[C@H](C(=O)N[C@@H](CCCNC(=N)N)C(=O)N[C@H](C(=O)N[C@@H](CC(N)=O)C(=O)N[C@@H](CO)C(=O)N[C@@H](C)C(=O)N[C@@H](Cc1ccc(O)cc1)C(=O)N[C@@H](CCC(N)=O)C(=O)N[C@@H](CC(=O)O)C(=O)N[C@@H](CCCCN)C(=O)O)C(C)C)C(C)C)[C@@H](C)O)C(C)C [Aggrecan 84–103 Cit] (H-VVLLVATEG[Cit]VRVNSAYQDK-OH)	0.051 µM	18.9 µM	11.1 µM	0.827 µM	4.26 µM	0.854 µM	29.7 µM	0.382 µM	2.34 µM	11 µM	0.74 µM	8.47 µM	0.047 µM	2.42 µM	3.86 µM	7.6 µM	22.8 µM	0.552 µM	28.5 µM	17 µM	IC50 [21, 22]: 16.2 µM
CSCC[C@H](NC(=O)[C@H](Cc1ccc(O)cc1)NC(=O)[C@H](CCC(N)=O)NC(=O)[C@@H](N)CC(C)C)C(=O)N[C@@H](CCCNC(N)=O)C(=O)N[C@@H](C)C(=O)N[C@@H](CC(=O)O)C(=O)N[C@@H](CCC(N)=O)C(=O)N[C@@H](C)C(=O)N[C@@H](C)C(=O)NCC(=O)NCC(=O)N[C@@H](CC(C)C)C(=O)N[C@@H](CCCNC(=N)N)C(=O)O [Collagen II 1236–1249 Cit] (H-LQYM[Cit]ADQAAGGLR-OH)	0.481 µM	0.063 µM	0.072 µM	0.013 µM	0.211 µM	0.216 µM	> 30 µM	4.12 µM	0.0073 µM	> 30 µM	10.2 µM	> 30 µM	7.34 µM	0.432 µM	0.232 µM	15.2 µM	> 30 µM	8.29 µM	0.276 µM	2.15 µM	IC50 [21, 22]: > 30 µM
CC(C)C[C@H](NC(=O)[C@H](CCCCN)NC(=O)[C@H](CC(C)C)NC(=O)[C@@H](NC(=O)[C@H](CC(N)=O)NC(=O)[C@H](CCC(N)=O)NC(=O)[C@H](CCCCN)NC(=O)[C@@H](NC(=O)[C@H](Cc1ccc(O)cc1)NC(=O)[C@H](CCCCN)NC(=O)[C@@H]1CCCN1)C(C)C)[C@@H](C)O)C(=O)N[C@@H](C)C(=O)N[C@H](C(=O)O)[C@@H](C)O [HA 307–319, reference compound]	–	–	–	–	–	–	–	–	–	–	–	–	–	–	–	–	–	–	–	–	IC50 [21]: 39.1 µM
